This is an account of results in BindingDB's records for PubMed 10411589 (The University of Queensland, 1999).

Assay [1] deals with Norepinephrine transporter (Rattus norvegicus, UniProt Q9JIA2).
The target of assay [2] is Sodium-dependent noradrenaline transporter (Bos taurus, UniProt P51143).
The target of assay [3] is Sodium-dependent noradrenaline transporter (Homo sapiens, UniProt P23975).

Molecules are shown by their SMILES.

Sequence of Sodium-dependent noradrenaline transporter (Bos taurus, UniProt P51143) (P51143 whole entry): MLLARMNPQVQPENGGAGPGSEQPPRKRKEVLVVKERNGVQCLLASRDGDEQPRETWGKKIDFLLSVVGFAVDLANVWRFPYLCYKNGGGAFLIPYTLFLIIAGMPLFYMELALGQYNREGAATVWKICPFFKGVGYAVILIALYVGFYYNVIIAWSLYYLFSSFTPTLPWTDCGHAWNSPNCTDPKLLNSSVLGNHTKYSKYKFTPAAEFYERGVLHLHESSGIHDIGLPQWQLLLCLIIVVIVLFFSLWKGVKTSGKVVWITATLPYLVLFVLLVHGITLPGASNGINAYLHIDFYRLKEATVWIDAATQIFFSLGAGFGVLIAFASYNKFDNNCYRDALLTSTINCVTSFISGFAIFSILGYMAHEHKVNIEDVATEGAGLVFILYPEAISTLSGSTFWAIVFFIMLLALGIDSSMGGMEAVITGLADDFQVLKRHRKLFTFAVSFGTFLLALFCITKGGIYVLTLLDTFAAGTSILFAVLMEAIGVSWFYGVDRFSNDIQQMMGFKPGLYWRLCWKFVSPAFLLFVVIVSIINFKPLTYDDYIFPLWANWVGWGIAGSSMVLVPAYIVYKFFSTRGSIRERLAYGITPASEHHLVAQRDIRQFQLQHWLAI
Sequence of Sodium-dependent noradrenaline transporter (Homo sapiens, UniProt P23975) (P23975 whole entry): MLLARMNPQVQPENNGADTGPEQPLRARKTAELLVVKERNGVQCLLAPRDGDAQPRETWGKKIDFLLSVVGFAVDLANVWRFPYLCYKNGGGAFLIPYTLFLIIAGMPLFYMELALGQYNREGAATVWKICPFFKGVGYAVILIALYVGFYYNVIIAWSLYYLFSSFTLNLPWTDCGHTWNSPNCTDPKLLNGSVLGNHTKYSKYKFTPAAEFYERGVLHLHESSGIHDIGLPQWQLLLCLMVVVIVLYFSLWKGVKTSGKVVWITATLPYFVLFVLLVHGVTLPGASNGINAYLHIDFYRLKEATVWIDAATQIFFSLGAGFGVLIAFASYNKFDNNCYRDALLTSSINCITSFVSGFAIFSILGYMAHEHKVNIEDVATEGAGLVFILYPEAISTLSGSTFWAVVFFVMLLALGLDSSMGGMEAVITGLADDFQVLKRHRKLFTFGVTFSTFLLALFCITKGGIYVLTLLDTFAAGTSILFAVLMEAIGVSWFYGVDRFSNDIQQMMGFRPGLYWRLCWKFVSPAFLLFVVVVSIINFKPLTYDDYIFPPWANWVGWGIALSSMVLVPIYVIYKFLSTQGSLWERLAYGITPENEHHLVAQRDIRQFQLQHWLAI

In turn, `CNCCC(Oc1ccccc1OC)c1ccccc1` (stereo not given) [3-(2-methoxyphenoxy)-N-methyl-3-phenylpropan-1-amine] returned a Ki in assay [1] of 5.74 nM.

As to `NCCc1ccc(O)c(O)c1`, the results for the Ki in assay [1] and in assay [2] were 392 nM and 397 nM, respectively.

For `CNCC(O)c1ccc(O)c(O)c1` (stereo not given) [EPINEPHRINE], the Ki was 3680 nM in assay [3], 6500 nM in assay [1] and 5000 nM in assay [2].

`CN(C)CCCN1c2ccccc2CCc2ccccc21`: the affinity in assay [2] corresponds to a Ki of 93.6 nM.

`C[n+]1ccc(-c2ccccc2)cc1` [NSC_39484]: the Ki in assay [3] was determined as 507 nM; in assay [1], 778 nM; in assay [2] it was 570 nM.
